# Test results from EP3911180B1, “PAENIBACILLUS WYNNII BETA-GALACTOSIDASE FOR THE PRODUCTION OF LACTOSE-DEPLETED AND GOS-ENRICHTED DAIRY PRODUCTS” (Universität Hohenheim, priority 2019, dated 2020).
# Entries after “also recorded” stand apart in the source; their conditions may differ. Read-outs that look alike come from different tables or passages of the source.
# Legend:
# [1] = test system: Bacillus circulans beta-galactosidase; conditions: phosphate buffer, 40 °C; read-out: KM,lactose; cited from earlier work
# [2] = test system: Metagenome M1 beta-galactosidase (metagenome beta-galactosidase 3J33 as described in EP 2 530 148 A1); conditions: 8 °C, read-out: KM,lactose, cited from earlier work
# [3] = test system: Metagenome M1 beta-galactosidase (metagenome beta-galactosidase 3J33 as described in EP 2 530 148 A1); test: Turnover number with lactose as substrate; format: biochemical; conditions: 8 °C
# Protocol: To determine the turnover number, the specific activity of the enzymes on lactose at 8 °C was determined. The following formula was used to determine the turnover number: Kcat = (Vmax)/([E]) [s^−1] [formula] • Kcat = turnover number [s^-1] • Vmax = maximum activity [nkat/mg] • [E] = enzyme concentration […]
# In Table 9, the calculated turnover numbers of the two beta-galactosidases are depicted. Table 9: Turnover numbers of the beta-galactosidases M1 and P. wynnii (8 °C, lactose as substrate)
# [4] = molecular target: T1, P. wynnii beta-galactosidase (SEQ ID NO: 1) (Paenibacillus wynnii, UniProt A0A098MAF9); test: Determination of KM with lactose as substrate; format: biochemical; conditions: Novo-buffer, 8 °C
# T1 sequence (A0A098MAF9 1-1042): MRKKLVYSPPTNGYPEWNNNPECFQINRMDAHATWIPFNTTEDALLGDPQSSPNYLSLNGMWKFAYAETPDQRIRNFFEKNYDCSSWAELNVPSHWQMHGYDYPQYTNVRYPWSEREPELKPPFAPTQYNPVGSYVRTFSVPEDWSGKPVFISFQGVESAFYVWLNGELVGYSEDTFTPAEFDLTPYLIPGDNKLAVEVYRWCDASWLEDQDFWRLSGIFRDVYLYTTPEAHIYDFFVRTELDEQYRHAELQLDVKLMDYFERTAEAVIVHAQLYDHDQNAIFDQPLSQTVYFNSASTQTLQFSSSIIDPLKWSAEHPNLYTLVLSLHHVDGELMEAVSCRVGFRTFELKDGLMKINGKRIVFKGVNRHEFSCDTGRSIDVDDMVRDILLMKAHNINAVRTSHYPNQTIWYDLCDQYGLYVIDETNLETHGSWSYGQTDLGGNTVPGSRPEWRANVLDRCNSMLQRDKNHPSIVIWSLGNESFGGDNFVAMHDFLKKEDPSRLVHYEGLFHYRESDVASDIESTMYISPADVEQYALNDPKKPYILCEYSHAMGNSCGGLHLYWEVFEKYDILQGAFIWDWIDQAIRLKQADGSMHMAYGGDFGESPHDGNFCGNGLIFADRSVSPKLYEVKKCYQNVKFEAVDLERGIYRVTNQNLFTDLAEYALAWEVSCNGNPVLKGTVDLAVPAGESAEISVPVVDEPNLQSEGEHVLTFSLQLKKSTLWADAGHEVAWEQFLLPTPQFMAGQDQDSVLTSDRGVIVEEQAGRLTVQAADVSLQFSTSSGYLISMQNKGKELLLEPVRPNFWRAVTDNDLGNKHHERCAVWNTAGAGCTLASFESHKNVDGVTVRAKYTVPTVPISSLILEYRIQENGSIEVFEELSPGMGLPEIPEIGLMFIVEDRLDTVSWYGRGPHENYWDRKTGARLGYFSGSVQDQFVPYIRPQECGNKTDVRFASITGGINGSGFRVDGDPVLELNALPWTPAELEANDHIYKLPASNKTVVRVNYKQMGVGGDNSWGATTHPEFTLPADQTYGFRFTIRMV
# Protocol: For the substrate solution 400 mM lactose was dissolved in Novo buffer (the composition of which is depicted in Table 4). The beta-galactosidase activity was determined in a thermo shaker in 1.5 mL reaction tubes at 8°C. The enzyme mix and the lactose solution were preincubated at 8 °C for 12 min. To start the enzymatic reaction 100 µL of the enzyme mix were added to 100 µL lactose solution. The reaction was carried out for 5 min at 8 °C. The reaction was stopped by adding 300 µL 1 M HClO4 to the enzyme-substrate-mix. The mix was kept on ice for 5 min before it was centrifuged at 13 000 rcf and 4 °C for 5 min. 160 µL of the supernatant were transferred to 75 µL 2 M KOH to neutralise the solution. The neutralisation step was checked using pH paper and the pH was adjusted if necessary. […]
# The kinetic parameters were determined using the natural substrate lactose. […]
# For the determination of the KM values of P. wynnii beta-galactosidase lactose concentrations ranged from 0.76 mM to 97.5 mM. […] The enzyme activities were measured under initial reaction velocity conditions of the enzyme. The reaction times for the initial velocity of the enzymes were determined in previous experiments. The kinetic parameter KM was analysed using the Enzyme Kinetics Module in SigmaPlot 12.5 (Systat Software, Inc., San Jose, USA). […]
# [5] = test system: beta-galactosidase PbGal2A from P. barengoltzii; conditions: read-out: KM,lactose, cited from earlier work
# [6] = test system: P. barengoltzii beta-galactosidase; conditions: 200 mM galactose, 45 °C, substrate oNPGal; cited from earlier work
# [7] = test system: Metagenome M1 beta-galactosidase (metagenome beta-galactosidase 3J33 as described in EP 2 530 148 A1); test: Influence of galactose on the enzyme activity, lactose assay; format: biochemical; conditions: 8 °C; for Relative enzyme activity: Lactose-Assay
# Protocol: (§1) For the substrate solution 400 mM lactose was dissolved in Novo buffer (the composition of which is depicted in Table 4). The beta-galactosidase activity was determined in a thermo shaker in 1.5 mL reaction tubes at 8°C. The enzyme mix and the lactose solution were preincubated at 8 °C for 12 min. To start the enzymatic reaction 100 µL of the enzyme mix were added to 100 µL lactose solution. The reaction was carried out for 5 min at 8 °C. The reaction was stopped by adding 300 µL 1 M HClO4 to the enzyme-substrate-mix. The mix was kept on ice for 5 min before it was centrifuged at 13 000 rcf and 4 °C for 5 min. 160 µL of the supernatant were transferred to 75 µL 2 M KOH to neutralise the solution. The neutralisation step was checked using pH paper and the pH was adjusted if necessary. The solution was kept on ice for another 5 min before it was centrifuged at 13 000 rcf at 4 °C for 5 min. All assays were performed in triplicate. Table 4: Composition of Novo buffer
# The influence of galactose was also investigated with the metagenome M1 beta-galactosidase as described before. The determination of the enzyme activity in Novo buffer was conducted with a lactose concentration of 125 mM and 50 mM respectively. To this solutions 125 or 200 mM galactose were added.
# [8] = molecular target: commercial beta-galactosidase Opti-Lactase (K. lactis) (Kluyveromyces lactis, UniProt P00723); test: as above; format: biochemical; conditions: 200 mM galactose, 8 °C, substrate Lactose
# Chain of commercial beta-galactosidase Opti-Lactase (K. lactis) (P00723 whole entry): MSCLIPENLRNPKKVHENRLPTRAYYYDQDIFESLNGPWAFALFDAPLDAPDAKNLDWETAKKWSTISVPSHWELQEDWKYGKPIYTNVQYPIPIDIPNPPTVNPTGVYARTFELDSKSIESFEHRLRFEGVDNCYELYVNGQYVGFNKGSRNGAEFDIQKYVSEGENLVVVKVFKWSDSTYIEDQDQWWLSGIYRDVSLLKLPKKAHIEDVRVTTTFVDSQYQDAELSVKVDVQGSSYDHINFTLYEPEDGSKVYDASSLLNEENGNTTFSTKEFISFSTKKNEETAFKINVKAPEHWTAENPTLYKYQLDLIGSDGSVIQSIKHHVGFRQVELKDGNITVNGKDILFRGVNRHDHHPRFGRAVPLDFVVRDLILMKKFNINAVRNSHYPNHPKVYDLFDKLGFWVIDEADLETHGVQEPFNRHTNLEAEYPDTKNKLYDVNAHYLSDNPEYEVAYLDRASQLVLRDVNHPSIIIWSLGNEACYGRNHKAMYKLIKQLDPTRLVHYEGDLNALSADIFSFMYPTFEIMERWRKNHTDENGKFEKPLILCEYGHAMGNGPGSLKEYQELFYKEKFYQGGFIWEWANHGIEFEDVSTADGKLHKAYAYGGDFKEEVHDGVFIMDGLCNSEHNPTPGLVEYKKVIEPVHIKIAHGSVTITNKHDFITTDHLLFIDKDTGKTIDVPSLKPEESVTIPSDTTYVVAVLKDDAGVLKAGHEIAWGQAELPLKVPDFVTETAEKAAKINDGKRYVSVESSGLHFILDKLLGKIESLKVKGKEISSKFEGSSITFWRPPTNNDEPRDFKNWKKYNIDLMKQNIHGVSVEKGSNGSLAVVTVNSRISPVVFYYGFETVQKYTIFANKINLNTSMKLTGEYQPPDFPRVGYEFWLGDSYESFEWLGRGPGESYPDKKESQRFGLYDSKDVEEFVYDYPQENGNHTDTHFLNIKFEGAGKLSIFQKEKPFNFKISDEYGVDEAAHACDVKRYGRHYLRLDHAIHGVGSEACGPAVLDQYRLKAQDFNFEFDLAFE
# Protocol: as §1
# (§2) The influence of galactose was investigated with P. wynnii beta-galactosidase and the commercial beta-galactosidase Opti-Lactase (Optiferm GmbH, Oy-Mittelberg (D)). The determination of the enzyme activity in Novo buffer was conducted with a lactose concentration of 125 mM and 50 mM respectively. To this solutions 125 or 200 mM galactose were added. The determination of the enzyme activity was performed as described above.
# (§3) First, 125 and 200 mM galactose respectively were added to 125 mM lactose (A). The enzyme activity of the technical enzyme preparation decreased with increasing galactose concentration. An activity of 51.8 % was determined. […] In another experiment 200 mM galactose was added to 50 mM lactose (B). Here, the same effect as in (A) could be observed.
# [9] = molecular target: T1, P. wynnii beta-galactosidase (SEQ ID NO: 1); test: as above; format: biochemical; conditions: 8 °C
# Protocol: as §1, §2, §3
# [10] = molecular target: T1, P. wynnii beta-galactosidase (SEQ ID NO: 1); test: Influence of glucose and galactose on the enzyme activity, oNPGal assay; format: biochemical; conditions: pH 6.75, 200 mM Galactose, 37 °C, read-out: Relative enzyme activity
# Protocol: (§4) The enzyme activity of beta-galactosidase was determined in 1.2 mL scale using oNPGal as substrate at 37 °C. For the assays a final concentration of 25 mM oNPGal dissolved in 100 mM potassium phosphate buffer (pH 6.75 containing 5 mM magnesium chloride) was used. Substrate and enzyme solution were preheated separately. The reaction was performed in a temperature-controlled cuvette using a spectrophotometer by adding enzyme solution to oNPGal solution. The increase of absorbance at 405 nm as result of o-nitrophenol release was measured for 2 min. The activity was calculated from the slope of the straight line.
# (§5) Due to the experimental setup (analysis), it was not possible to measure the influence of glucose with the natural substrate lactose.
# [11] = test system: Metagenome M1 beta-galactosidase (metagenome beta-galactosidase 3J33 as described in EP 2 530 148 A1); test: as above; format: biochemical; conditions: 200 mM galactose, 37 °C, substrate oNPGal
# Protocol: as §4, §5
# [12] = molecular target: K. lactis beta-galactosidase (Kluyveromyces lactis, UniProt P00723); conditions: 200 mM galactose, 37 °C, substrate oNPGal; cited from earlier work
# Chain of K. lactis beta-galactosidase (P00723 whole entry): as above
structure (smiles),measurement,setting,value
OC[C@H]1O[C@@H](O[C@H]2[C@H](O)[C@@H](O)C(O)O[C@@H]2CO)[C@H](O)[C@@H](O)[C@H]1O (stereo partly drawn) [lactose],Km,[1],16 mM
same,Km,[2]; Novo buffer,1.44 mM
same,Km,[2]; milk + Novo buffer,2.1 mM
same,Turnover number (Kcat),[3],2.466 s⁻¹
same,Km,[4],0.34 to 0.52 mM
same,Km,"[5]; MOPS buffer, 45 °C",43.3 mM
same,Km,[5],43.3 ± 1.84 mM
"OC[C@H]1OC(O)[C@H](O)[C@@H](O)[C@H]1O (stereo partly drawn) [galactose, D-galactose]",Influence of galactose (200 mM),[6],43.27 % EA
same,Relative enzyme activity,[7]; 50 mM lactose + 200 mM galactose,100%
same,Relative enzyme activity,[7]; 125 mM lactose + 125 mM galactose,97%
same,Relative enzyme activity,[7]; 125 mM lactose + 200 mM galactose,101%
same,inhibition by galactose,"[7]; 125 or 200 mM galactose, 125 or 50 mM lactose, Novo buffer",did also not have an inhibitory effect
same,activity at 200000 µM,[8],32.5%
same,activity at 200000 µM,"[9]; 200 mM galactose, substrate Lactose",100%
same,remaining activity at 200000 µM,"[9]; 5 min, 50 mM lactose + 200 mM galactose, Lactose-Assay, read-out: Relative enzyme activity",110%
same,remaining activity at 125000 µM,"[9]; 5 min, 125 mM lactose + 125 mM galactose, Lactose-Assay, read-out: Relative enzyme activity",108%
same,remaining activity at 200000 µM,"[9]; 5 min, 125 mM lactose + 200 mM galactose, Lactose-Assay, read-out: Relative enzyme activity",115%
same,inhibition by galactose,"[9]; galactose up to 200 mM, Novo buffer, lactose as substrate",No inhibition; also recorded: did not have an inhibitory effect
same,remaining activity at 200000 µM,[10],118%
same,Influence of galactose (200 mM),[11],100 % EA
same,Influence of galactose (200 mM),[12],75 % EA
